The results in this text go back to ChEMBL document CHEMBL1143232, “Antiviral activities against herpes simplex virus type 1 by HPH derivatives and their structure-activity relationships” (Bioorg Med Chem Lett, 2008).

The test system of series [1] is Human alphaherpesvirus 1. Nature of the series: Antiviral activity against HSV1 KOS in african green monkey Vero cells by plaque reduction assay. The series is classed as functional, organism-based. Particulars: Human alphaherpesvirus 1, KOS. For orientation: Plaques are areas of infected cells; plaque reduction assays count them against a control.
Series [2] in a line: Cytotoxicity against african green monkey Vero cells after 69 hrs by Alamar blue assay. Particulars: chlorocebus sabaeus. The series is classed as cell-based. Background: Alamar Blue is a resazurin reagent that responds to reducing activity.
A short description of series [3]: Ratio of CC50 for african green monkey Vero cells to EC50 for HSV1 KOS. The series is classed as functional.
A short description of series [4]: Partition coefficient, log P of the compound. The series is classed as physicochemical. Particulars: octanol/water.

In series [1], `O=C(O)CCNC(=O)c1cc(-c2cccc3ccccc23)cc(C(=O)NCCC(=O)O)n1` came in with an EC50 greater than 100 µM. The compound also returned a CC50 at 69 h in series [2] greater than 100 µM.
Consider `O=C(CCNC(=O)c1cccc(C(=O)NCCC(=O)NO)n1)NO`, for which, in series [1], the EC50 was greater than 100 µM. Further, the CC50 at 69 h in series [2] is greater than 100 µM.
In series [1], `COC(=O)C(Cc1c[nH]cn1)NCc1cc(N(C)C)cc(C(=O)NC(Cc2c[nH]cn2)C(=O)OC)n1` (configuration not stated) had an EC50 greater than 100 µM. The CC50 at 69 h in series [2] was greater than 100 µM.
`CC(C)(C)SCCNC(=S)c1cccc(C(=S)NCCSC(C)(C)C)n1`: a half-maximal effect in series [1] (EC50) was put at 15 µM. The compound also gave a CC50 at 69 h in series [2] of 37 µM. Moreover, in series [3], the “Ratio CC50/EC50” value turned out to be 2.5. The logP in series [4] was found to be 4.4.
In series [1], `CC(C)(C)SCCNC(=O)c1cccc(C(=O)NCCSC(C)(C)C)n1` had an EC50 of 79 µM. The same compound came in with a CC50 at 69 h in series [2] of 500 µM. Also, the “Ratio CC50/EC50” value in series [3] came out at 6.3. Also, the logP in series [4] stood at 2.7.
Take `CSCCNC(=O)c1cccc(C(=O)NCCSC)n1`: the 50% effective concentration (EC50) in series [1] was greater than 100 µM. In series [2], this compound returned a CC50 at 69 h greater than 100 µM.
On to `O=C(O)CCNC(=O)c1cccc(C(=O)NCCC(=O)O)n1`, for which, in series [1], the EC50 was greater than 100 µM. The same compound returned a CC50 at 69 h in series [2] greater than 100 µM.
In series [1], `O=C(CCNC(=O)c1cc(-c2cccc3ccccc23)cc(C(=O)NCCC(=O)NO)n1)NO` had an EC50 greater than 100 µM. Besides, the CC50 at 69 h in series [2] is greater than 100 µM.
Turning to `Nc1nc2c(ncn2COCCO)c(=O)[nH]1` [ACYCLOVIR], in series [1], the midpoint of the response, the EC50, lay at 6 µM. The compound also gave a 50% cytotoxic concentration (CC50) at 69 h in series [2] greater than 100 µM.

The EC50 is the concentration giving half of the maximal effect. What is called CC50 is the concentration giving 50% cytotoxicity. For orientation: logP means the decadic logarithm of the partition coefficient of the neutral form, usually between octanol and water.
